Results taken from patent US20260008758A1, “LINEAR DIPEPTIDYL PEPTIDASE 1 INHIBITORS AND USES THEREOF” (Insmed Incorporated, priority 2024, published 2026).

Experiments:
human DPP1 enzyme = human DPP1 enzyme (Homo sapiens (Human), UniProt P53634); assay: Human DPP1 enzyme single-point percent inhibition testing (HL-60 lysate, H-Gly-Arg-AMC substrate); format: biochemical; conditions: read-out: human DPP1 enzyme % inhibition @ 10 nM, 10 nM compound, 400 μM H-Gly-Arg-AMC, 10 min pre-incubation at 37° C.
Protocol: A crude lysate of HL-60 cells (ATCC; Manassas, VA) was used as a source of human DPP1 enzyme in the assay. Lysate was prepared in 1% Triton X-100 in PBS at a concentration of 20,000 live cells per […] of lysis buffer and was centrifuged at 16,000 rcf for 10 minutes at 4° C., after which supernatant was collected and flash-frozen in liquid nitrogen. Test articles were applied to human DPP1 enzyme in Assay Buffer (25 mM MES pH 6.0, 50 mM NaCl, 5 mM DTT) in a total reaction volume of 125 μL. 25 μL of compound diluted to 50 nM in Assay Buffer plus 5% DMSO was first added to 50 μL of HL-60 lysate diluted to contain a DPP1 enzyme concentration of roughly 1 ng/μL and allowed to pre-incubate for 10 minutes at 37° C. after which 50 μL of 1000 μM H-Gly-Arg-AMC substrate (Bachem; St. Torrance, CA) was added, giving final compound concentration of 10 nM, a final substrate concentration of 400 μM and a final DMSO concentration of 1%. Substrate cleavage was measured for 90 minutes at 37° C., with fluorescence at Excitation/Emission 350/450 nm measured every 5 minutes. DPP1 concentration was interpolated based on its activity relative to a standard curve of activated human recombinant DPP1 enzyme. Percent inhibition at 10 nM was calculated for each test article based on remaining DPP1 activity compared to enzyme activity in wells that received only vehicle control.

DPP1 in HL-60 cells = DPP1 in HL-60 cells (Homo sapiens (Human), UniProt P53634); assay: DPP1 cell single-point percent inhibition testing (HL-60 cells, H-Gly-Phe-AFC substrate); format: cell-based; conditions: read-out: DPP1 cell % inhibition @ 5 nM, 5 nM compound, 100 μM H-Gly-Phe-AFC, 60 min pre-incubation at 37° C.
Protocol: HL-60 cells (ATCC; Manassas, VA) were maintained in RPMI-1640 supplemented with 20% heat-inactivated FBS and 1× Antibiotic Antimycotic (Cytiva; Marlborough, MA). Media was changed every three to four days and cells were not allowed to exceed 1×10^6 cells per mL. Prior to assay, cells were collected by centrifugation at 500 rcf for 3 minutes, resuspended in RPMI (with no additional supplements) and counted. Cells were diluted in RPMI to a concentration of 5×10^5 live cells per mL and transferred to black 96-well plates for assay, 60 μL per well. Test articles were diluted to 25 nM in RPMI plus 0.5% DMSO, and 20 μL was added to each assay well. Compound was allowed to pre-incubate with cells with gentle shaking at 100 rpm for 60 minutes at 37° C. in a cell culture incubator maintained at 5% CO2, after which 20 μL of 500 μM H-Gly-Phe-AFC cell-permeable substrate (MP Biomedicals; Solon, OH) in RPMI was added to each well, giving final compound concentration of 5 nM, a final substrate concentration of 100 μM and a final DMSO concentration of 0.1%. Plates were returned to the incubator with shaking at 100 rpm for 30 minutes, after which fluorescence was measured at Excitation/Emission 400/505 nm. Percent Inhibition was calculated from RFU values by first subtracting background values (wells in which RPMI was substituted for cells) from each well, and then subtracting background-subtracted RFU derived from wells that received a final concentration of 10 μM brensocatib. This value represents the non-specific substrate cleavage from the HL-60 cells, and the remaining RFU should theoretically be solely the contribution of DPP1 enzyme activity. The final percent inhibition value was calculated for each test article based on remaining RFU compared to RFU from wells that received only vehicle control.

human DPP1 enzyme, sequence (P53634 25-134): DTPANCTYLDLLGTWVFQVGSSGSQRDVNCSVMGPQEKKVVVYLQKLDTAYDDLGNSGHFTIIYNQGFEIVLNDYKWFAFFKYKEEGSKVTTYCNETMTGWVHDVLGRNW
human DPP1 enzyme, sequence (P53634 231-394): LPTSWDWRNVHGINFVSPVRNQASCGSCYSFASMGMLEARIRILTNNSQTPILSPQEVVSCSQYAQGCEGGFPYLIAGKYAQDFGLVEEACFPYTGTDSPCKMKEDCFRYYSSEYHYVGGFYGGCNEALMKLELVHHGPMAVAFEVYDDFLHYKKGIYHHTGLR
human DPP1 enzyme, sequence (P53634 395-463): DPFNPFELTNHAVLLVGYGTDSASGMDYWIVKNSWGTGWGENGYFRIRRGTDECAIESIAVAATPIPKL
DPP1 in HL-60 cells, sequence (P53634 25-134): as the sequence (P53634 25-134) above
DPP1 in HL-60 cells, sequence (P53634 231-394): as the sequence (P53634 231-394) above
DPP1 in HL-60 cells, sequence (P53634 395-463): as the sequence (P53634 395-463) above

SMILES	inhibition at 0.01 µM (human DPP1 enzyme) [%]	inhibition at 0.005 µM (DPP1 in HL-60 cells) [%]
CO[C@@H](CN(C)C)C(=O)N[C@H](C#N)Cc1ccc(-c2ccc(CN3CCN(C)CC3)cc2)cc1F [Compound 323]	≤ 40	76.5 to 93.9
CO[C@@H](CN(C)C)C(=O)N[C@H](C#N)Cc1ccc(-c2ccc3oc(=O)n(C)c3c2)cc1F [Compound 324]	40 to 66.7	76.5 to 93.9
CO[C@@H](CN(C)C)C(=O)N[C@H](C#N)Cc1ccc(-c2ccc3c(n2)CCCN3)cc1F [Compound 325]	≤ 40	≤ 76.5
COCCN(C)CCn1c(=O)oc2ccc(-c3ccc(C[C@@H](C#N)NC(=O)[C@H](CN(C)C)OC)c(F)c3)cc21 [Compound 326]	≥ 66.7	≤ 76.5
CO[C@@H](CN(C)C)C(=O)N[C@H](C#N)Cc1ccc(-c2ccc3cnn(C)c3c2)cc1 [Compound 328]	≤ 40	≤ 76.5
CO[C@@H](CN(C)C)C(=O)N[C@H](C#N)Cc1ccc(-c2ccc3nnn(C)c3c2)cc1 [Compound 329]	≤ 40	≤ 76.5
CO[C@@H](CN(C)C)C(=O)N[C@H](C#N)Cc1ccc(-c2cnc3c(n2)CCCC3)cc1 [Compound 330]	≤ 40	≤ 76.5
CO[C@@H](CN(C)C)C(=O)N[C@H](C#N)Cc1ccc(-c2ccc(S(=O)(=O)N3CCC3)cc2)cc1 [Compound 331]	≤ 40	≤ 76.5
CO[C@@H](CN(C)C)C(=O)N[C@H](C#N)Cc1ccc(-c2ccc3cnn(C)c3c2)cc1F [Compound 332]	≤ 40	≤ 76.5
CO[C@@H](CN(C)C)C(=O)N[C@H](C#N)Cc1ccc(-c2ccc3nnn(C)c3c2)cc1F [Compound 333]	40 to 66.7	76.5 to 93.9
CO[C@@H](CN(C)C)C(=O)N[C@H](C#N)Cc1ccc(-c2cnc3c(n2)CCCC3)cc1F [Compound 334]	≤ 40	≤ 76.5
CO[C@@H](CN(C)C)C(=O)N[C@H](C#N)Cc1ccc(-c2ccc(S(=O)(=O)N3CCC3)cc2)cc1F [Compound 335]	≤ 40	≤ 76.5
CO[C@@H](CN(C)C)C(=O)N[C@H](C#N)Cc1cc2c(cc1F)-c1ccc(F)cc1CO2 [Compound 336]	≤ 40	≤ 76.5
CN(C)C[C@H](O)C(=O)N[C@H](C#N)Cc1cc2c(cc1F)-c1ccc(C#N)cc1CO2 [Compound 338]	≤ 40	≤ 76.5
CN(C)C[C@H](O)C(=O)NC(C#N)Cc1cc2c(cc1F)-c1cc3c(cc1CO2)oc(=O)n3C (stereo partly shown) [Compound 339]	≤ 40	≤ 76.5
CN(C)C[C@H](O)C(=O)NC(C#N)Cc1cc2c(cc1F)-c1ccc3oc(=O)n(C)c3c1CO2 (stereo partly shown) [Compound 341]	≤ 40	≤ 76.5
CN(C)C[C@H](O)C(=O)N[C@H](C#N)Cc1ccc(-c2ccc3c(c2)C2(CC3)CCN(C)CC2)cc1 [Compound 342]	40 to 66.7	≤ 76.5
CN(C)C[C@H](O)C(=O)N[C@H](C#N)Cc1ccc(-c2ccc3c(c2)C2(CCCN(C)C2)C(=O)N3C)cc1 (stereo partly shown) [Compound 343]	≤ 40	≤ 76.5
CN(C)CCn1c(=O)oc2ccc(-c3ccc(C[C@@H](C#N)NC(=O)[C@@H](O)CN(C)C)cc3)cc21 [Compound 344]	40 to 66.7	≤ 76.5
Cc1cn2cc(-c3ccc(C[C@@H](C#N)NC(=O)[C@@H](O)CN(C)C)cc3)cc2c(C)n1 [Compound 345]	≤ 40	≤ 76.5
